Data published in patent EP0039059A2, “Anti-inflammatory drugs and their application” (F. HOFFMANN-LA ROCHE & CO. Aktiengesellschaft, priority 1980, dated 1981).

Assays:
[1] = tested on: Krotonöl-Entzündung in der Maus; test: Croton oil inflammation in the mouse (ear punch weight); assay type: in vivo, Mäusen (Charles River CD-1); conditions: for Gewicht der Ohrstücke in mg: croton oil alone 19,7±0,6, vehicle without croton oil 7,2; for Hemmung in %: topical, mouse ear, 6 h
Protocol: Eine Lösung aus 0,1 Teilen Krotonöl, 1 Teil destilliertem Wasser, 4 Teilen Pyridin und 4,9 Teilen Diäthyläther (Volumenteile), welche die Testverbindung enthält, wird topisch auf Ohren von 21 Tage alten männlichen Mäusen (Charles River CD-1) gegeben (25 ul). Verschiedene Gruppen von Mäusen dienten als Kontrollgruppen (Trägermaterial-Gruppe und Krotonöl-Gruppe). Nach 6 Stunden wird das Gewicht der Ohrstücke bestimmt, das in erster Linie ein Mass für die Oedem-Komponente der Entzündung ist. Verminderung des Gewichtes von Ohrstücken, welche von Mäusen erhalten wurden, welche mit der Testverbindung und dem Reizmittel behandelt worden sind, verglichen mit dem Gewicht von Ohrstücken, die von Mäusen erhalten wurden, die nur mit dem Reizmittel behandelt worden sind, zeigt entzündungshemmende Wirkung an (Endocrinology 77, 625-634, 1965; Clin. Pharm. Exp. Therap. 16, 900-904, 1974).
Die Verbindung E wird bei 3 verschiedenen Dosierungen im Krotonöl-Entzündungs-Test in der Maus auf ihre topisch entzündungshemmende Wirkung hin geprüft. Ebenfalls getestet werden Hydrocortison, ein bekanntes topisch entzündungshemmendes Corticosteroid, und eine Reihe von bekannten Verbindungen, welche systemisch entzündungshemmend wirken und nicht zur Klasse der Steroide gehören. Die Testresultate (Hemmung in Prozenten) sind in der unten stehenden Tabelle angegeben. Wie man diesen Resultaten entnehmen kann, entfaltet die Verbindung E eine vergleichbare Aktivität wie Hydrocortison, währenddem die anderen Verbindungen, welche nicht zur Klasse der Steroide gehören, in wesentlich höheren Dosierungen verabreicht werden müssen, um eine vergleichbare Hemmung zu bewirken, wie die Verbindung E und Hydrocortison.
Die entzündungshemmende Wirkung der Verbindung E alleine oder in Kombination mit 4-(3-Butoxy-4-methoxybenzyl)-2-imidazolidinon wird im Krotonöl-Test an der Maus bestimmt. Die Verbindung E wird bei verschiedenen Konzentrationen verwendet. 4-(3-Butoxy-4-methoxybenzyl)-2-imida- zolidinon wird, sofern vorhanden, in einer Konzentration von 5 Gewichtsprozenten (bezogen auf das Gewicht der applizierten Lösung) eingesetzt. Die Testresultate sind in der unten stehenden Tabelle aufgeführt.

[2] = tested on: Oxazolon-Entzündung in vorsensibilisierten Mäusen; test: Oxazolone inflammation in presensitised mice (ear punch weight); assay type: in vivo, Mäuse (Charles River CD-1); conditions: topical, mouse ear, 24 h
Protocol: 21 Tage alte männliche Mäuse (Charles River CD-1) werden mit Oxazolon sensibilisiert, indem man 400 ug Oxazolon in 20 ul Aceton topisch auf das Scrotum appliziert.. Eine Woche später werden 10 ul Aceton oder 200 µg Oxazolon topisch auf die innere Oberfläche des Ohres und die Testverbindung in 10 µl Aceton auf die äussere Oberfläche des Ohres appliziert. Verschiedene Gruppen von Mäusen dienten als Kontrollgruppen (Trägermaterial-Gruppe und Oxazolon-Gruppe). Das Gewicht der Ohrstücke wird 24 Stunden später bestimmt. Verminderung des Gewichtes der Ohrstücke, erhalten aus Mäusen, welche mit der Testverbindung und mit Oxazolon behandelt worden sind, verglichen mit dem Gewicht der Ohrstücke, erhalten aus Mäusen, welche mit Oxazolon alleine behandelt worden sind, zeigt entzündungshemmende Wirkungen (Br. J. Pharmacol. 43, 403-408, 1971).
Die topisch entzündungshemmenden Wirkungen der Verbindung E, Hydrocortison und Indomethacin werden bei verschiedenen Dosierungen im Oxazolon-Entzündungs-Test in vorsensibilisierten Mäusen bestimmt. Die Testresultate (Hemmung in %) sind in der untenstehenden Tabelle angegeben.

[3] = tested on: Baumwollkügelchen-Granuloma; test: Cotton pellet granuloma method in the rat; assay type: in vivo, Ratten (Charles River CD); conditions: s.c. implant, 72 h; for durchschnittliches Nettogewicht der Kügelchen in mg trocken: ethanol vehicle 32.6; for durchschnittliches Nettogewicht der Kügelchen in mg feucht: ethanol vehicle 392.5
Protocol: Man löst die Testverbindung in einem geeigneten Lösungsmittel und appliziert jeweils 0,1 ml dieser Lösung auf einheitliche, vorher gewogene Baumwollkügelchen, die man aus Baumwolltampons herausgeschnitten hat. Man trocknet die Baumwollkügelchen bei Raumtemperatur. 2 mit der Testverbindung imprägnierte Kügelchen werden auf dem Dorsum von 5 Wochen alten männlichen Ratten (Charles River CD) subcutan inplantiert. 72 Stunden später werden die Kügelchen entfernt. Man bestimmt das Feucht- und Trockengewicht und korrigiert um das Tara der Kügelchen. Vergleicht man nun die Gewichte der Granulomata, die man von mit der Testverbindung imprägnierten Kügelchen erhalten hat, mit den Gewichten der Granulomata, die man von nur mit Trägermaterial imprägnierten Kügelchen erhalten hat, miteinander, so zeigt eine Abnahme des Gewichtes entzündungshemmende Wirkung an (Endocrinology 60, 153-160, 1957).
Die topisch entzündungshemmenden Wirkungen der Verbindung E und Hydrocortison werden durch Verwendung des Baumwollkügelchen-Granuloma-Verfahrens an der Ratte bestimmt. Die in der unten stehenden Tabelle angegebenen Testresultate zeigen, dass die Verbindung E bei Dosierungenen von 90 und 270 µg/0,1 ml grösser ist als die Akti- vität von Hydrocortison (niedrigere Feucht- und Trockengewichte).

[4] = tested on: Cantharidin-Entzündung in der Ratte; test: Cantharidin inflammation in the rat (ear punch weight); assay type: in vivo, Ratten (Charles River CD); conditions: 100 µg/0,1 ml topical, compound given 24 h after cantharidin, autopsy 72 h
Protocol: Eine Lösung aus einem Teil Aethanol, 1,5 Teilen Collodion, 2 Teilen Aceton und 3 Teilen Diäthyläther (Volumenteile), welche 400 ug Cantharidin/0,1 ml und die Testverbindung in der gewünschten Menge enthält, wird topisch auf die äussere Oberfläche von Ohren von 21 Tage alten männlichen Ratten (Charles River CD) gegeben (0,1 ml). Andere Gruppen von Ratten werden mit Trägermaterial alleine, mit Cantharidin alleine und mit Cantharidin plus Testverbindung behandelt. Wo in den Beispielen angegeben, wird die Testverbindung 24 Stunden nach Verabreichung von Cantharidin verabreicht. 72 Stunden nach Verabreichung von Cantharidin wird eine Autopsie durchgeführt. Aus dem Ohr werden an der behandelten Stelle einheitliche Stücke herausgestanzt und gewogen. Aus den Gewichtsveränderungen lassen sich die Auswirkungen auf den Entzündungsprozess ermitteln, und zwar sowohl für die Flüssigkeits- als auch für die Gewebskomponente. Eine Reduktion des Gewichtes von Hautstücken, die man aus Ratten erhalten hat, welche mit dem Reizmittel und der Testverbindung behandelt worden sind, verglichen mit dem Gewicht von Hautstücken, welche man von Ratten erhalten hat, die nur mit dem Reizmittel behandelt worden sind, zeigt eine entzündungshemmende Wirkung an (J. Invest. Dermatol. 68, 161-164, 1977).
Eine Reihe von Verbindungen der allgemeinen Formel I werden im Cantharidin-Entzündungs-Test in der Ratte auf ihre topisch entzündungshemmenden Wirkungen hin ge- testet. Jede Verbindung wird bei 5 verschiedenen Dosierungen getestet. Die in der nachfolgenden Tabelle ange- gebenen Testresultate (in %) geben an, um wieviel die durch Cantharidin bewirkte Zunahme des Gewichtes der Ohrstücke durch die jeweilige Testverbindung reduziert wird: • [formula]
Die topisch entzündungshemmende Wirkung der Verbindung E wird bei einer Dosierung von 100 µg/0,1 ml im Cantharidin- Entzündungs-Test in der Ratte bestimmt, wobei man adrenalektomierte und intakte Ratten verwendet. Wie man den Testresultaten in der untenstehenden Tabelle entnehmen kann, entfaltet die Verbindung E an der adrenalektomierten Ratte etwa die gleich grosse Wirkung wie an der intakten Ratte. Dies zeigt an, dass der primäre Wirkungsmechanismus nicht in der Stimulierung der Nebennierenrinde besteht.

[5] = pellets impregnated with 90 µg/0.1 ml
[6] = pellets impregnated with 270 µg/0.1 ml

Q: `CCCCOc1cc(CC2CNC(=O)N2)ccc1OC` (stereo not drawn) [4-(3-Butoxy-4-methoxybenzyl)-2-imidazolidinon] was tested. Which “Gewicht der Ohrstücke in mg” value ([1]; 5% imidazolidinone, Verbindung E 0 µg/0,1 ml) did it give?
A: 17,6±1,0 mg

Q: What about the “entzündungshemmende Wirkung” value ([1]; alone, at concentrations of 5%, test not given) of the same compound?
A: nur wenig oder gar keine entzündungshemmende Wirkung

Q: And the “Einfluss auf die entzündungshemmende Wirkung der Verbindung E” value ([1]; imidazolidinone at 5% combined with Verbindung E)?
A: potenziert

Q: Which Hemmung in % ([1]; dose 1250 µg/25 µl) does the source give for `CC(=O)Oc1ccccc1C(=O)O` [Acetylsalicyl säure] here?
A: 28%

Q: And the Hemmung in % ([1]; dose 2500 µg/25 µl)?
A: 36%

Q: What about the Hemmung in % ([1]; dose 5000 µg/25 µl) of the same compound?
A: 78%

Q: What about the Hemmung in % ([1]; dose 10000 µg/25 µl) of the same compound?
A: 88%

Q: What does the source list for `CC(C(=O)O)c1cccc(Oc2ccccc2)c1` (stereo not drawn) [Fenoprofen]?
A: Hemmung in % ([1]; dose 1250 µg/25 µl): 50%; Hemmung in % ([1]; dose 2500 µg/25 µl): 71%

Q: What does the source list for `C[C@]12CCC(=O)C=C1CC[C@@H]1[C@@H]2[C@@H](O)C[C@@]2(C)[C@H]1CC[C@]2(O)C(=O)CO` [Hydrocortison]?
A: Hemmung in % ([1]; dose 50 µg/25 µl): 53%; Hemmung in % ([1]; dose 125 µg/25 µl): 77%; Hemmung in % ([1]; dose 250 µg/25 µl): 98%; Hemmung in % ([2]; dose 50 µg/10 µl): 24%; Hemmung in % ([2]; dose 200 µg/10 µl): 49%; durchschnittliches Nettogewicht der Kügelchen in mg trocken [3, 5]: 37.7 mg; durchschnittliches Nettogewicht der Kügelchen in mg feucht [3, 5]: 406.5 mg; durchschnittliches Nettogewicht der Kügelchen in mg trocken [3, 6]: 20.3 mg; durchschnittliches Nettogewicht der Kügelchen in mg feucht [3, 6]: 286.6 mg

Q: How did the Hemmung in % ([2]; dose 500 µg/10 µl) turn out when `COc1ccc2c(c1)c(CC(=O)O)c(C)n2C(=O)c1ccc(Cl)cc1` [Indomethacin] was run?
A: 32%

Q: What about the Hemmung in % ([2]; dose 1000 µg/10 µl) of the same compound?
A: 59%

Q: Which Hemmung in % ([1]; dose 1250 µg/25 µl) does the source give for `COc1ccc2cc([C@H](C)C(=O)O)ccc2c1` [Naproxen] here?
A: 60%

Q: What about the Hemmung in % ([1]; dose 2500 µg/25 µl) of the same compound?
A: 87%

Q: Which Hemmung in % ([4]; adrenalectomised rats) does the source give for `CN1CCN(C2=Cc3ccccc3Sc3ccc(Cl)cc32)CC1` [Verbindung E, 8-Chlor-10-(4-methylpiperazino)dibenzo-[b,f]thiepin] here?
A: 49%

Q: And the “Gewicht der Ohrstücke” value ([4]; adrenalectomised rats, vehicle 11.4±0.2, cantharidin alone 25.5±1.0)?
A: 18.6±0.6

Q: And the Hemmung in % ([4]; intact rats)?
A: 55%

Q: And the “Gewicht der Ohrstücke” value ([4]; intact rats, vehicle 12.0±0.4, cantharidin alone 25.2±1.5)?
A: 18.0±1.1

Q: And the “Gewicht der Ohrstücke in mg” value ([1]; Verbindung E alone, 100 µg/0,1 ml)?
A: 15,9±0,8 mg

Q: And the “Gewicht der Ohrstücke in mg” value ([1]; Verbindung E alone, 400 µg/0,1 ml)?
A: 11,8±0,6 mg

Q: And the Hemmung in % ([1]; dose 100 µg/25 µl)?
A: 48%

Q: And the Hemmung in % ([1]; dose 200 µg/25 µl)?
A: 67%

Q: What about the Hemmung in % ([1]; dose 500 µg/25 µl) of the same compound?
A: 91%

Q: What about the Hemmung in % ([2]; dose 100 µg/10 µl) of the same compound?
A: 51%

Q: What about the Hemmung in % ([2]; dose 500 µg/10 µl) of the same compound?
A: 75%

Q: What about the “durchschnittliches Nettogewicht der Kügelchen in mg trocken” value [3, 5] of the same compound?
A: 20.1 mg

Q: What about the “durchschnittliches Nettogewicht der Kügelchen in mg feucht” value [3, 5] of the same compound?
A: 285.2 mg

Q: What about the “durchschnittliches Nettogewicht der Kügelchen in mg trocken” value [3, 6] of the same compound?
A: 16.9 mg

Q: And the “durchschnittliches Nettogewicht der Kügelchen in mg feucht” value [3, 6]?
A: 234.9 mg

Q: Which results are given for Phenylbutazon?
A: Hemmung in % ([1]; dose 1250 µg/25 µl): 33%; Hemmung in % ([1]; dose 2500 µg/25 µl): 69%
